According to patent US7236891B2, “Methods of determining polypeptide structure and function” (Queen's University at Kingston, priority 2001, dated 2007):
“Also recorded” adds a separate entry of the source. Like-named read-outs stand apart in the source and are kept apart here. Square brackets hold non-standard residues; d marks the D form. Peptide text beside a SMILES is read from it. Nle = CCCC[C@H](N)C(=O)O

What was measured:
[1] = biological target: T1, μI-II (domain I-II construct from μ-calpain) (Rattus norvegicus, UniProt P97571); assay: Proteolytic activity of μI-II against synthetic peptide substrate SLY-MCA; assay type: biochemical; conditions: for inhibition of μI-II protease activity: qualitative, data not shown
T1 construct: extended from residue 29 (MG^29RHENA-) to residue 356; added N-terminal Met (N); made in house; host or cells: E. coli BL21 (DE3)
T1 sequence (P97571 29-356): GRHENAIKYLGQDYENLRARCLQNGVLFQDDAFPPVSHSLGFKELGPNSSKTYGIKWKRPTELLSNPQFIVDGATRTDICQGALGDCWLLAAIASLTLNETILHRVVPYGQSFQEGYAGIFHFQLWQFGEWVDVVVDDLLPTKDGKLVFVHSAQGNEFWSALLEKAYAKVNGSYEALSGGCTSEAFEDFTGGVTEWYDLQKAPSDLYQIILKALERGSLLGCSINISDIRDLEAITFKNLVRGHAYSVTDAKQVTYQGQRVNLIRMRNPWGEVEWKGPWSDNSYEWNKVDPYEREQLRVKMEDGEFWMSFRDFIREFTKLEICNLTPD
Description: (§1) Proteolytic digestion of the C105S m-calpain heterodimer was performed at 22° C. in a final volume of less than 150 μL, in 50 mM HEPES pH 7.6, 1 mg/mL calpain, 0.15 mg/mL μI-II, without divalent cations, or with 1 mM CaCl2 or 1 mM MgCl2. Autolysis of μI-II was performed under the same conditions but instead of the C105S m-calpain substrate, 2.5 mg/mL of μI-II was used. The reaction was stopped by the addition of 2×SDS sample buffer. At specific time intervals aliquots were removed and analyzed by SDS-PAGE using a 9% gel. Control reactions lacked the protease domain I–II. The activity of μI-II against the peptide substrate SLY-MCA (Sigma) was also tested in 50 mM HEPES pH 7.6, 200 mM NaCl, 1 mM DTT, 5–30 mM divalent cation (CaCl2, MgCl2, MnCl2, or ZnCl2), 0.75 mM SLY-MCA, 2.5 μM μI-II, in a final volume of 3 mL. MCA release was monitored in a LS50B Perkin Elmer luminescence spectrometer set with excitation and the emission wavelengths at 360 nm and 460 nm, respectively. Steady-state kinetics analysis was performed under the same buffer conditions but in the presence of 0.5 mM CaCl2, by varying SLY-MCA concentration from 0.02–1.5 mM. The steady-state parameters (kcat and KM) were obtained from the Michaelis-Menten plot.

μI-II (C115S) [2] = biological target: T2, μI-II (C115S) (Rattus norvegicus, UniProt P97571, C115S); assay: Intrinsic tryptophan fluorescence of μI-II during Ca2+ titration; assay type: binding; conditions: for ability to substitute for CaCl2 in the intrinsic tryptophan fluorescence change: concentrations up to 30 mM
T2 construct: extended from residue 29 (MG^29RHENA-) to residue 356; added N-terminal Met (N); made in house; host or cells: E. coli BL21 (DE3)
T2 sequence (P97571 29-356 C115S): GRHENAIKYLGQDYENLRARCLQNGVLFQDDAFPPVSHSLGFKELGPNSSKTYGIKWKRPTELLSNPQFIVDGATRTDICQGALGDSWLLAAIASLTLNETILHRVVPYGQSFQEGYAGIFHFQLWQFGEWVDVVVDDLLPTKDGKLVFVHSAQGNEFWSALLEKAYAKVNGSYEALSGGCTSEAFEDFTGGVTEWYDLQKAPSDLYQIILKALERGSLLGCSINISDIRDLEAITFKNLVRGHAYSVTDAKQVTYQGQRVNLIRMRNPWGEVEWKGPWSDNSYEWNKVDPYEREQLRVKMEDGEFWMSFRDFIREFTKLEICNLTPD
Description: Intrinsic tryptophan fluorescence measurements were performed in a Perkin Elmer LS50B fluorescence spectrophotometer at 22° C. using a stirrer-adapted 4 mL cuvette (Helmma). Excitation and emission wavelength were set at 280 nm and 340 nm, respectively. The reaction buffer was the same as that used for activity measurements against SLY-MCA, and the protein concentration was 0.65 μM. […] CaCl2 (50 mM) dissolved in the reaction buffer was pumped continuously (4 μL/min, Harvard Apparatus pump 22) using a 250 μL microsyringe (Hamilton-microliter 1000 series gastight) through a tube into the cuvette. The reaction mixture was vigorously mixed using the internal magnetic stirrer of the fluorimeter. The fluorescence intensity was corrected for dilution, and the normalised data was fitted to the Hill equation y=x^n/k^n+x^n), where y is the fraction of maximum intensity change, k=[Ca^2+]0.5 (the value of [Ca^2+] at which half-maximum intensity change is observed, n is the Hill coefficient, and x is [Ca^2+]. Intrinsic tryptophan fluorescence measurements were also performed under the same buffer conditions but substituting for CaCl2, either MgCl2, MnCl2, or ZnCl2 up to 30 mM. To test the aggregation state of the domain I–II constructs, relative 90° light scattering was monitored under the same reaction conditions by setting both the excitation and emission wavelength of the spectrophotometer to 320 nm. No significant aggregation was detected even at the highest CaCl2 concentration (30 mM) tested.

μI-II [3] = biological target: T3, μI-II (Rattus norvegicus, UniProt P97571); assay: Proteolysis of inactive C105S m-calpain heterodimer by μI-II; assay type: biochemical; conditions: 1 mM MgCl2
T3 construct: extended from residue 29 (MG^29RHENA-) to residue 356; added N-terminal Met (N); made in house; host or cells: E. coli BL21 (DE3)
T3 sequence (P97571 29-356): as the sequence (P97571 29-356) above
Description: as §1

μI-II [4] = biological target: T3, μI-II; assay: Autolysis of μI-II in 1 mM CaCl2 (SDS-PAGE); conditions: 1 mM CaCl2, 20 hours
Description: as §1

μI-II (C115S) [5] = biological target: T2, μI-II (C115S); assay: Intrinsic tryptophan fluorescence of μI-II during Ca2+ titration; assay type: binding; conditions: read-out: Ca2+ requirement for activation of μI-II
intact μ-calpain = biological target: T4, intact μ-calpain (Homo sapiens, UniProt P07384); conditions: reported values; read-out: Ca2+ for half-maximal activation of intact μ-calpain; cited from earlier work
T4 sequence (P07384 1-714): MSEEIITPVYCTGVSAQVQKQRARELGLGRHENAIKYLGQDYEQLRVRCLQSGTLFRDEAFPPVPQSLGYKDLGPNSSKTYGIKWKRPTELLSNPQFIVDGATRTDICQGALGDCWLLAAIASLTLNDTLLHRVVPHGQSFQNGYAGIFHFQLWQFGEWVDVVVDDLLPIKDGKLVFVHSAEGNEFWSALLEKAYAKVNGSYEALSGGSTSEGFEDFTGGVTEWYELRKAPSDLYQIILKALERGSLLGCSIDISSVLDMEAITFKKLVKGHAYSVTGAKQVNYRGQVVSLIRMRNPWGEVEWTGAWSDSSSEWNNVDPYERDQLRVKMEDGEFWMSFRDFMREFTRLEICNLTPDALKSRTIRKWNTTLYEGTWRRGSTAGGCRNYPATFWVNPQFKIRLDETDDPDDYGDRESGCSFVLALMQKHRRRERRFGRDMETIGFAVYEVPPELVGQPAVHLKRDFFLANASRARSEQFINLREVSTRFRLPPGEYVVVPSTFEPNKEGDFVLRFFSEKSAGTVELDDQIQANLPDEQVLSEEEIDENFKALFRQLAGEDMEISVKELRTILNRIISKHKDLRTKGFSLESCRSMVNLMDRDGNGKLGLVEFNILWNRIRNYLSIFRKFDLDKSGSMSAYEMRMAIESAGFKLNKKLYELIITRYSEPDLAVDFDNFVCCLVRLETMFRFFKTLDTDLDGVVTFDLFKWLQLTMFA
T4 sequence (P04632 1-268 partner): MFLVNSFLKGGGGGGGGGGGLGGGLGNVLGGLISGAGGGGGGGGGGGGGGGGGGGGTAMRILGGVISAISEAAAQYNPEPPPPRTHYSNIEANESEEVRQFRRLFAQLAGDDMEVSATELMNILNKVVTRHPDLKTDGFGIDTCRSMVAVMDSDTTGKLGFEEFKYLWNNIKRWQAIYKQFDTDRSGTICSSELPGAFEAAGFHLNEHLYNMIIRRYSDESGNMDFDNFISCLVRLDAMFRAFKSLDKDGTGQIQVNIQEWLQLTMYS

Compound: CCCC[C@@H](C=O)NC(=O)[C@H](CC(C)C)NC(=O)[C@H](CC(C)C)NC(C)=O [calpain inhibitor I] (Ac-Leu-Leu-[Nle]-aldehyde)
- inhibition of μI-II protease activity [1]: abolished; also recorded: inhibited

Compound: [Cl-].[Cl-].[Mg+2] [MgCl2]
- ability to substitute for CaCl2 in the intrinsic tryptophan fluorescence change (μI-II (C115S) [2]): unable to substitute
- proteolysis of C105S m-calpain by μI-II when substituted for Ca2+ (μI-II [3]): no proteolysis

Compound: CC(=O)N[C@@H](CC(C)C)C(=O)N[C@@H](CC(C)C)C(=O)N[C@H](C=O)CCCNC(=N)N [leupeptin]
- inhibition of μI-II protease activity [1]: abolished; also recorded: inhibited

Compound: [Cl][Mn][Cl] [MnCl2]
- ability to substitute for CaCl2 in the intrinsic tryptophan fluorescence change (μI-II (C115S) [2]): unable to substitute

Compound: μI-II: recombinant protease core, domains I and II (residues 29-356) of rat μ-calpain with C-terminal His tag
- catalytic efficiency relative to the full enzyme ([1]; SLY-MCA digestion): ~2%
- decrease in turnover (kcat) compared to intact m-calpain ([1]; SLY-MCA digestion): 35 fold
- μI-II still present after autodigestion (μI-II [4]): Over 50%

Compound: O=C(O)CN(CCN(CC(=O)O)CC(=O)O)CC(=O)O [EDTA, reference compound]
- reversal of the Ca2+-induced fluorescence change (μI-II (C115S) [2]; data not shown): completely reversed

Compound: CC(C)C[C@H](NC(=O)[C@H]1O[C@@H]1C(=O)O)C(=O)NCCCCN=C(N)N (relative stereo) [E64, trans-epoxysuccinyl-L-leucilamido(4-guanidino)-butane]
- SLY-MCA hydrolysis by E64-reacted μI-II (μI-II-E64) ([1]; C115 μI-II reacted with E64 in 5 mM CaCl2): unable to hydrolyse SLY-MCA
- inhibition of μI-II protease activity [1]: abolished; also recorded: inhibited
- effect on W298 fluorescence of μI-II (μI-II (C115S) [2]; μI-II-E64 complex): quenching

Compound: [Cl-].[Cl-].[Zn+2] [ZnCl2]
- ability to substitute for CaCl2 in the intrinsic tryptophan fluorescence change (μI-II (C115S) [2]): unable to substitute

Compound: [Ca+2].[Cl-].[Cl-] [CaCl2]
- CaCl2 concentration at which the fluorescence increase was >99% complete (μI-II (C115S) [2]): ~500 µM
- CaCl2 concentration at which the fluorescence increase was first noticeable (μI-II (C115S) [2]): ~5 µM
- total increase in the fluorescence intensity (μI-II (C115S) [2]; CaCl2 titration): ~36.8±0.5%
- Hill coefficient (μI-II (C115S) [2]; CaCl2 titration fitted to the Hill equation): 2.72±0.42
- EC50 (μI-II (C115S) [2]; CaCl2 titration, excitation 280 nm, emission 340 nm, read-out: half-maximal change in intrinsic tryptophan fluorescence): 41.8 ± 7.1 µM
- EC50 (μI-II (C115S) [5]): ~40 µM
- EC50 (intact μ-calpain): 5 to 50 µM
